Patent US8575135B2 (Gilead Sciences, Inc., priority 2011, dated 2013)
Where two headings read alike, the source gives them in different places.

Assays:
[1] = system: stable HCV 1a RLuc replicon cells (genotype 1a H77 replicon); assay: microbe, parasite or virus in culture; format: cell-based; details: Hepatitis C virus
[2] = system: stable HCV 1b RLuc replicon cells (genotype 1b Con1 replicon); assay: microbe, parasite or virus in culture; format: cell-based; details: Hepatitis C virus, read-out: 1b (nM)
[3] = system: stable HCV 2a JFH-1 Rluc replicon cells (L31 present in NS5A); assay: microbe, parasite or virus in culture; format: cell-based; details: Hepatitis C virus
[4] = system: NS5A chimeric genotype 1b Con1 replicon with genotype 3a S52 strain NS5A gene; assay: microbe, parasite or virus in culture; format: cell-based, HCV; details: Hepatitis C virus
How it was run: (§1)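 Con1-based 3a and 4a chimeras carried a Pi-RLuc reporter and were transiently transfected into Huh-Lunet cells; the JFH-1-based 2b chimera (RLuc-Neo) was used transiently or as stable replicon cells.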

[5] = system: NS5A chimeric genotype 2a JFH-1 replicon with genotype 2a J6 strain NS5A gene (M31 present); assay: microbe, parasite or virus in culture; format: cell-based, HCV; details: Hepatitis C virus
[6] = system: NS5A chimeric genotype 2a JFH-1 replicon with genotype 2b MD2b-1 strain NS5A gene (M31 present); assay: microbe, parasite or virus in culture; format: cell-based, HCV; details: Hepatitis C virus
How it was run: as §1

[7] = system: 1a Pi-Rluc replicon with Q30R in genotype 1a NS5A; assay: microbe, parasite or virus in culture; format: cell-based, HCV; details: Hepatitis C virus
How it was run: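 Renilla luciferase replicon assay: 1a Pi-RLuc replicon carrying NS5A Q30R, transfected transiently into cured-51 (Huh-7-derived) cells.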

[8] = IV and PO single dose pharmacokinetic studies in SD rats; format: in vivo; details: male, Sprague-Dawley, rat, plasma, IV infusion 1 mg/kg vs oral gavage 2 mg/kg, read-out: Rat % F

Compound: COC[C@H]1C[C@@H](c2ncc(-c3ccc4c(c3)COc3cc5c(ccc6nc([C@@H]7CC[C@H](C)N7C(=O)[C@@H](NC(=O)OC)C(C)C)[nH]c65)cc3-4)[nH]2)N(C(=O)[C@@H](NC(=O)OC)[C@H](C)OC)C1 [Example QA, Methyl {(2S)-1-[(2S,5S)-2-(9-{2-[(2S,4S)-1-{(2S,3S)-3-methoxy-2-[(methoxycarbonyl)amino]butanoyl}-4-(methoxymethyl)pyrrolidin-2-yl]-1H-imidazol-5-yl}-1,11-dihydroisochromeno[4′,3′:6,7]naphtho[1,2-d]imidazol-2-yl)-5-methylpyrrolidin-1-yl]-3-methyl-1-oxobutan-2-yl}carbamate]
- EC50 ([1]; read-out: 1a): < 1 nM
- EC50 ([1]; read-out: 1a (nM)): 0.012 nM
- EC50 [2]: 0.013 nM
- EC50 ([3]; read-out: 2a JFH): < 1 nM
- EC50 ([3]; read-out: 2a JFH (nM)): 0.007 nM
- EC50 ([4]; read-out: 3a): < 1 nM
- EC50 ([4]; read-out: 3a (nM)): 0.038 nM
- EC50 ([5]; read-out: 2a J6): < 1 nM
- EC50 ([5]; read-out: 2a Jb (t) (nM)): 0.094 nM
- EC50 ([6]; read-out: 2b): < 1 nM
- EC50 ([6]; read-out: 2b (s) (nM)): 0.04 nM
- EC50 ([6]; read-out: 2b (t) (nM)): 0.052 nM
- EC50 ([7]; read-out: 1a Q30R): < 1 nM
- EC50 ([7]; read-out: 1a Q30R (nM)): 0.045 nM
- bioavailability [8]: 7.46%
